Laboratory results as given in patent publication US20190210969A1, “INTRAESOPHAGEAL ADMINISTRATION OF TARGETED NITROXIDE AGENTS FOR PROTECTION AGAINST IONIZING IRRADIATION-INDUCED ESOPHAGITIS” (University of Pittsburgh - Of the Commonwealth System of …, priority 2010, published 2019).

Assays:
[1] = test system: KM101 human marrow stromal cells; test: Irradiation survival of KM101 marrow stromal cells (colony assay); type: cell-based; details: for n (shoulder): 0 to 6 Gy
Experimental: FIG. 7 is a graph showing that JP4-039 is an effective mitigator of irradiation damage to KM101 human marrow stromal cells. KM101 cells were incubated in media alone or in JP4-039 ([…]) for one hour before irradiation or 24 hours after irradiation. The cells were irradiated to doses ranging from 0 to 6 Gy and plated in 4 well plates. Seven days later the cells were stained with crystal violet and colonies of greater than 50 cells counted. Cells incubated in JP4-039 either before or after irradiation were more radioresistant as shown by an increased shoulder of n=2.3±0.2 or 2.2±0.2, respectively compared to n of 1.1±0.1 for the KM101 cells (p=0.0309 or 0.0386, respectively).

[2] = test system: GFP+ cells in the esophagus; test: GFP+ marrow-derived cells in the irradiated esophagus (cell sorting); type: in vivo, mouse
Excerpt: FIGS. 18A-F. Detection of GFP+ marrow-derived cells in the irradiated mouse esophagus after intravenous transplant. Mice were irradiated to 29 Gy to the esophagus on day 0, and then injected with 1×10^7 GFP+ marrow cells intravenously on day 5 according to published methods (Epperly M W, et al. Int J Cancer (Radiat Oncol Invest) 96: 221-233, 2001; Epperly M W, et al. In Vivo 19: 997-1004, 2005; and Epperly M W, et al. Protection of esophageal stem cells from ionizing irradiation by MnSOD-plasmid liposome gene therapy. In Vivo 19: 965-974, 2005). Five esophagus samples were removed from each animal in the various subgroups on days 1 (FIG. 18A), 3 (FIG. 18B), 7 (FIG. 18C), 14 (FIG. 18D), 28 (FIG. 18E) and 60 (FIG. 18F) after marrow injection. Samples of excised esophagi were prepared as single cell suspensions and then analyzed by cell […] for GFP+ cells/106 esophagus cells. Each symbol represents one esophagus.
Bone marrow transplantation, esophageal excision and cell sorting. Five days after irradiation, the time shown to optimize marrow cell homing to the irradiated esophagus, mice received intravenous injection of 1.0×10^7 C57BL/6HNsd GFP+ male bone marrow cells prepared as single-cell suspension from donor male mice according to published methods (Niu Y, et al. Irradiated esophageal cells are protected from radiation-induced recombination by MnSOD gene therapy. Rad Res 173: 453-461, 2010 and Niu Y, et al. Intraesophageal MnSOD-plasmid liposome administration enhances engraftment and self-renewal capacity of bone marrow derived progenitors of esophageal squamous epithelium. Gene Therapy 15: 347-356, 2008). At serial time points after marrow transplantation, esophagus specimens were removed, and single cell suspensions prepared according to published methods (Id.). The esophagus cell suspensions were sorted for GFP+ cells. The number of GFP+ cells per 10^6 was calculated as described previously (Id.). (GFP+) cells were placed on slides, and stained for detection of donor cell markers (Id.).
Statistics. In vitro data analysis and estimation of survival of mice were performed using published statistical methods (Epperly M W, et al. Radiat Res 155: 2-14, 2001). The Kruskal-Wallis test and post-hoc Mann-Whitney test were used to evaluate donor marrow cells in the esophagus as described (Niu Y, et al. Rad Res 173: 453-461, 2010). A SAS statistical program was used to perform the statistical analysis (SAS Institute, Cary, N.C., USA).

[3] = JP4-039 uptake in normal tissue and orthotopic tumors after intraesophageal administration (EPR); type: in vivo, mouse
Experimental: Lastly, to determine whether JP4-039 was taken up by other tissue, esophagus, lung orthotopic tumor, liver, and peripheral blood samples were taken 10, 30, and 60 minutes after intraesophageal administration of the compound. Samples were snap-frozen on dry ice and JP4-039 content was quantified by EPR analysis.
To determine if the orally-administered JP4-039 also reached other tissues and orthotopic tumors, esophagus, peripheral blood, bone marrow, liver, and 3LL orthotopic tumors were harvested at 10, 30, and 60 minutes after intraesophageal administration of JP4-039, followed by quantification by EPR. […] JP4-039 levels in peripheral blood and orthotopic tumor peaked at 30 minutes at 51.1 and 276.0 pmol/mg protein, respectively. […] Lower levels of JP4-039 were detected in bone marrow up to 60 minutes after drug swallow compared to levels in liver and tumor tissue.

[4] = intraesophageal, F15 formulation

## CC(C)C[C@@H](/C=C/CC(=O)NC1CC(C)(C)N([O])C(C)(C)C1)NC(=O)OC(C)(C)C [JP4-039, TEMPO-4-yl-(S,E)-5-(tert-butoxycarbonylamino)-7-methyloct-3-enamide]
[1]; 24 hours after irradiation, KM101 alone 1.1±0.1, p=0.0386
  n (shoulder): 2.2±0.2
[1]; before or after irradiation vs media alone
  Do: no significant change
[1]; for one hour before irradiation, KM101 alone 1.1±0.1, p=0.0309
  n (shoulder): 2.3±0.2
[2]; 29 Gy + JP4-039 (after irradiation), day 1
  number of GFP+ cells per 10^6 cells in the esophagus, median (inter-quartile range): 0.5 (0-1.6) per 10^6 cells
[2]; 29 Gy + JP4-039 (after irradiation), day 3
  number of GFP+ cells per 10^6 cells in the esophagus, median (inter-quartile range): 1.5 (0.5-1.7) per 10^6 cells
[2]; 29 Gy + JP4-039 (after irradiation), day 7
  number of GFP+ cells per 10^6 cells in the esophagus, median (inter-quartile range): 0 (0-0.3) per 10^6 cells
[2]; 29 Gy + JP4-039 (after irradiation), day 28
  number of GFP+ cells per 10^6 cells in the esophagus, median (inter-quartile range): 0.85 (0-4.15) per 10^6 cells
[2]; JP4-039 + 29 Gy (before irradiation), day 1
  number of GFP+ cells per 10^6 cells in the esophagus, median (inter-quartile range): 0.9 (0.3-2.6) per 10^6 cells
[2]; JP4-039 + 29 Gy (before irradiation), day 3
  number of GFP+ cells per 10^6 cells in the esophagus, median (inter-quartile range): 0.3 (0-3.1) per 10^6 cells
[2]; JP4-039 + 29 Gy (before irradiation), day 7
  number of GFP+ cells per 10^6 cells in the esophagus, median (inter-quartile range): 0.28 (0.13-0.65) per 10^6 cells
[2]; JP4-039 + 29 Gy (before irradiation), day 28
  number of GFP+ cells per 10^6 cells in the esophagus, median (inter-quartile range): 0 (0-0) per 10^6 cells
[2]; JP4-039 + 29 Gy (before irradiation), day 60
  number of GFP+ cells per 10^6 cells in the esophagus, median (inter-quartile range): 0 (0-0) per 10^6 cells
[3]; [4]
  time of peak level in liver: 10 min
  time of peak level in orthotopic tumor: 30 min
  time of peak level in peripheral blood: 30 min
[3]; intraesophageal, F15 formulation, 3LL tumor, at 30 minutes, EPR
  peak JP4-039 level in orthotopic tumor: 276.0 pmol/mg protein
[3]; intraesophageal, F15 formulation, at 10 minutes, EPR
  peak JP4-039 level in liver: 122/2
[3]; intraesophageal, F15 formulation, at 30 minutes, EPR
  peak JP4-039 level in peripheral blood: 51.1 pmol/mg protein
[3]; up to 60 minutes after drug swallow
  JP4-039 level in bone marrow compared to liver and tumor tissue: Lower levels
